{
  "source": "patent US20230218624A1",
  "about": "(Urovant Sciences GmbH, priority 2017, published 2023)",
  "key": {"men and women with OAB": {"test_system": "men and women with OAB", "experiment": "Phase 2b efficacy study in men and women with OAB", "type": "in vivo, human", "details": "for Micturitions, change from baseline in average number of micturitions, difference in LS means / Total incontinence, change from baseline in average number of episodes, difference in LS means / Urgency Episodes, change from baseline in average number of episodes, difference in LS means / Urgency incontinence, change from baseline in average number of episodes, difference in LS means / Volume voided, change from baseline in average volume per void over one diary day, difference in LS means: week 8; for Change from baseline in volume voided per micturition, difference from placebo in LS means: Week 8; for Total incontinence episodes, change from baseline Week 8, mean / Total incontinence episodes, daily number, Week 8 mean / Total incontinence episodes, difference from placebo Week 8, difference in LS means / Urgency incontinence episodes, change from baseline Week 8, mean / Urgency incontinence episodes, daily number, Week 8 mean / Urgency incontinence episodes, difference from placebo Week 8, difference in LS means: OAB wet subjects", "text": "Part 2 was designed to continue to assess the safety and efficacy of concomitant dosing. […] Subjects in both Part 1 and Part 2 had the option of enrolling in a 1-year extension. Participants were required to keep a voiding diary, recording the occurrence of each strong urge, total incontinence, and urge incontinence episode. Efficacy data for Part 1 and Part 2 are summarized herein.\nThe total number of urgency incontinence episodes must have exceeded the total number of stress incontinence episodes for all subjects.\nConversely, a dose dependent effect on urge incontinence or total incontinence was not observed."}, "[1]": {"test_system": "patients with overactive bladder", "experiment": "Phase 2 safety data, adverse events (main study and 52-week extension)", "details": "first 12 weeks", "text": "A placebo group was included in the main study, and a group that received tolterodine monotherapy was included in the main study and in the extension."}},
  "data": [
    {"molecule": "O=C(Nc1ccc(C[C@@H]2CC[C@H]([C@H](O)c3ccccc3)N2)cc1)[C@@H]1CCc2nccc(=O)n21", "note": "[Vibegron, (6S)—N-[4-[[(2S,5R)-5-[(R)-hydroxy(phenyl)methyl]pyrrolidin-2-yl]methyl]phenyl]-4-oxo-7,8-dihydro-6H-pyrrolo[1,2-a]pyrimidine-6-carboxamide]", "values": [
      {"measurement": "Micturitions, change from baseline in average number of micturitions, difference in LS means", "setting": "men and women with OAB; 50 mg - Placebo", "result": "−0.64"},
      {"measurement": "Total incontinence, change from baseline in average number of episodes, difference in LS means", "setting": "men and women with OAB; 50 mg - Placebo", "result": "−0.60"},
      {"measurement": "Urgency Episodes, change from baseline in average number of episodes, difference in LS means", "setting": "men and women with OAB; 50 mg - Placebo", "result": "−0.76"},
      {"measurement": "Urgency incontinence, change from baseline in average number of episodes, difference in LS means", "setting": "men and women with OAB; 50 mg - Placebo", "result": "−0.72"},
      {"measurement": "Volume voided, change from baseline in average volume per void over one diary day, difference in LS means", "setting": "men and women with OAB; 50 mg - Placebo", "result": 29.1, "unit": "mL"},
      {"measurement": "Micturitions, change from baseline in average number of micturitions, difference in LS means", "setting": "men and women with OAB; 100 mg - 50 mg", "result": "−0.27"},
      {"measurement": "Total incontinence, change from baseline in average number of episodes, difference in LS means", "setting": "men and women with OAB; 100 mg - 50 mg", "result": 0.02},
      {"measurement": "Urgency Episodes, change from baseline in average number of episodes, difference in LS means", "setting": "men and women with OAB; 100 mg - 50 mg", "result": "−0.48"},
      {"measurement": "Urgency incontinence, change from baseline in average number of episodes, difference in LS means", "setting": "men and women with OAB; 100 mg - 50 mg", "result": 0.01},
      {"measurement": "Volume voided, change from baseline in average volume per void over one diary day, difference in LS means", "setting": "men and women with OAB; 100 mg - 50 mg", "result": -5.69, "unit": "mL"},
      {"measurement": "Micturitions, change from baseline in average number of micturitions, difference in LS means", "setting": "men and women with OAB; 100 mg - Placebo", "result": "−0.91"},
      {"measurement": "Total incontinence, change from baseline in average number of episodes, difference in LS means", "setting": "men and women with OAB; 100 mg - Placebo", "result": "−0.58"},
      {"measurement": "Urgency Episodes, change from baseline in average number of episodes, difference in LS means", "setting": "men and women with OAB; 100 mg - Placebo", "result": "−1.24"},
      {"measurement": "Urgency incontinence, change from baseline in average number of episodes, difference in LS means", "setting": "men and women with OAB; 100 mg - Placebo", "result": "−0.71"},
      {"measurement": "Volume voided, change from baseline in average volume per void over one diary day, difference in LS means", "setting": "men and women with OAB; 100 mg - Placebo", "result": 23.4, "unit": "mL"},
      {"measurement": "Micturitions, change from baseline Week 8, mean", "setting": "men and women with OAB; vibegron 3 mg", "result": "−1.56"},
      {"measurement": "Micturitions, daily number, Week 8 mean", "setting": "men and women with OAB; vibegron 3 mg", "result": 9.35},
      {"measurement": "Micturitions, difference from placebo Week 8, difference in LS means", "setting": "men and women with OAB; vibegron 3 mg", "result": "−0.46"},
      {"measurement": "Urgency episodes, change from baseline Week 8, mean", "setting": "men and women with OAB; vibegron 3 mg", "result": "−1.69"},
      {"measurement": "Urgency episodes, daily number, Week 8 mean", "setting": "men and women with OAB; vibegron 3 mg", "result": 4.68},
      {"measurement": "Urgency episodes, difference from placebo Week 8, difference in LS means", "setting": "men and women with OAB; vibegron 3 mg", "result": "−0.18"},
      {"measurement": "Change from baseline in volume voided per micturition, difference from placebo in LS means", "setting": "men and women with OAB; vibegron 3 mg once daily", "result": 15.99, "unit": "mL"},
      {"measurement": "Total incontinence episodes, change from baseline Week 8, mean", "setting": "men and women with OAB; vibegron 3 mg", "result": "−1.56"},
      {"measurement": "Total incontinence episodes, daily number, Week 8 mean", "setting": "men and women with OAB; vibegron 3 mg", "result": 1.38},
      {"measurement": "Total incontinence episodes, difference from placebo Week 8, difference in LS means", "setting": "men and women with OAB; vibegron 3 mg", "result": "−0.18"},
      {"measurement": "Urgency incontinence episodes, change from baseline Week 8, mean", "setting": "men and women with OAB; vibegron 3 mg", "result": "−1.38"},
      {"measurement": "Urgency incontinence episodes, daily number, Week 8 mean", "setting": "men and women with OAB; vibegron 3 mg", "result": 1.21},
      {"measurement": "Urgency incontinence episodes, difference from placebo Week 8, difference in LS means", "setting": "men and women with OAB; vibegron 3 mg", "result": "−0.28"},
      {"measurement": "Micturitions, change from baseline Week 8, mean", "setting": "men and women with OAB; vibegron 15 mg", "result": "−1.71"},
      {"measurement": "Micturitions, daily number, Week 8 mean", "setting": "men and women with OAB; vibegron 15 mg", "result": 9.53},
      {"measurement": "Micturitions, difference from placebo Week 8, difference in LS means", "setting": "men and women with OAB; vibegron 15 mg", "result": "−0.45"},
      {"measurement": "Urgency episodes, change from baseline Week 8, mean", "setting": "men and women with OAB; vibegron 15 mg", "result": "−2.35"},
      {"measurement": "Urgency episodes, daily number, Week 8 mean", "setting": "men and women with OAB; vibegron 15 mg", "result": 4.42},
      {"measurement": "Urgency episodes, difference from placebo Week 8, difference in LS means", "setting": "men and women with OAB; vibegron 15 mg", "result": "−0.67"},
      {"measurement": "Change from baseline in volume voided per micturition, difference from placebo in LS means", "setting": "men and women with OAB; vibegron 15 mg once daily", "result": 28.23, "unit": "mL"},
      {"measurement": "Total incontinence episodes, change from baseline Week 8, mean", "setting": "men and women with OAB; vibegron 15 mg", "result": "−1.99"},
      {"measurement": "Total incontinence episodes, daily number, Week 8 mean", "setting": "men and women with OAB; vibegron 15 mg", "result": 1.31},
      {"measurement": "Total incontinence episodes, difference from placebo Week 8, difference in LS means", "setting": "men and women with OAB; vibegron 15 mg", "result": "−0.48"},
      {"measurement": "Urgency incontinence episodes, change from baseline Week 8, mean", "setting": "men and women with OAB; vibegron 15 mg", "result": "−1.81"},
      {"measurement": "Urgency incontinence episodes, daily number, Week 8 mean", "setting": "men and women with OAB; vibegron 15 mg", "result": 1.12},
      {"measurement": "Urgency incontinence episodes, difference from placebo Week 8, difference in LS means", "setting": "men and women with OAB; vibegron 15 mg", "result": "−0.57"},
      {"measurement": "Micturitions, change from baseline Week 8, mean", "setting": "men and women with OAB; vibegron 50 mg", "result": "−1.87"},
      {"measurement": "Micturitions, daily number, Week 8 mean", "setting": "men and women with OAB; vibegron 50 mg", "result": 9.05},
      {"measurement": "Micturitions, difference from placebo Week 8, difference in LS means", "setting": "men and women with OAB; vibegron 50 mg", "result": "−0.64"},
      {"measurement": "Urgency episodes, change from baseline Week 8, mean", "setting": "men and women with OAB; vibegron 50 mg", "result": "−2.36"},
      {"measurement": "Urgency episodes, daily number, Week 8 mean", "setting": "men and women with OAB; vibegron 50 mg", "result": 3.71},
      {"measurement": "Urgency episodes, difference from placebo Week 8, difference in LS means", "setting": "men and women with OAB; vibegron 50 mg", "result": "−0.76"},
      {"measurement": "Change from baseline in volume voided per micturition, difference from placebo in LS means", "setting": "men and women with OAB; vibegron 50 mg once daily", "result": 29.05, "unit": "mL"},
      {"measurement": "Total incontinence episodes, change from baseline Week 8, mean", "setting": "men and women with OAB; vibegron 50 mg", "result": "−2.02"},
      {"measurement": "Total incontinence episodes, daily number, Week 8 mean", "setting": "men and women with OAB; vibegron 50 mg", "result": 1.02},
      {"measurement": "Total incontinence episodes, difference from placebo Week 8, difference in LS means", "setting": "men and women with OAB; vibegron 50 mg", "result": "−0.60"},
      {"measurement": "Urgency incontinence episodes, change from baseline Week 8, mean", "setting": "men and women with OAB; vibegron 50 mg", "result": "−1.90"},
      {"measurement": "Urgency incontinence episodes, daily number, Week 8 mean", "setting": "men and women with OAB; vibegron 50 mg", "result": 0.86},
      {"measurement": "Urgency incontinence episodes, difference from placebo Week 8, difference in LS means", "setting": "men and women with OAB; vibegron 50 mg", "result": "−0.72"},
      {"measurement": "Micturitions, change from baseline Week 8, mean", "setting": "men and women with OAB; vibegron 100 mg", "result": "−2.11"},
      {"measurement": "Micturitions, daily number, Week 8 mean", "setting": "men and women with OAB; vibegron 100 mg", "result": 9.02},
      {"measurement": "Micturitions, difference from placebo Week 8, difference in LS means", "setting": "men and women with OAB; vibegron 100 mg", "result": "−0.91"},
      {"measurement": "Urgency episodes, change from baseline Week 8, mean", "setting": "men and women with OAB; vibegron 100 mg", "result": "−2.98"},
      {"measurement": "Urgency episodes, daily number, Week 8 mean", "setting": "men and women with OAB; vibegron 100 mg", "result": 4.22},
      {"measurement": "Urgency episodes, difference from placebo Week 8, difference in LS means", "setting": "men and women with OAB; vibegron 100 mg", "result": "−1.24"},
      {"measurement": "Change from baseline in volume voided per micturition, difference from placebo in LS means", "setting": "men and women with OAB; vibegron 100 mg once daily", "result": 23.36, "unit": "mL"},
      {"measurement": "Total incontinence episodes, change from baseline Week 8, mean", "setting": "men and women with OAB; vibegron 100 mg", "result": "−2.26"},
      {"measurement": "Total incontinence episodes, daily number, Week 8 mean", "setting": "men and women with OAB; vibegron 100 mg", "result": 1.12},
      {"measurement": "Total incontinence episodes, difference from placebo Week 8, difference in LS means", "setting": "men and women with OAB; vibegron 100 mg", "result": "−0.58"},
      {"measurement": "Urgency incontinence episodes, change from baseline Week 8, mean", "setting": "men and women with OAB; vibegron 100 mg", "result": "−2.05"},
      {"measurement": "Urgency incontinence episodes, daily number, Week 8 mean", "setting": "men and women with OAB; vibegron 100 mg", "result": 0.84},
      {"measurement": "Urgency incontinence episodes, difference from placebo Week 8, difference in LS means", "setting": "men and women with OAB; vibegron 100 mg", "result": "−0.71"},
      {"measurement": "Accidental overdose, % subjects", "setting": "[1]; 3 mg", "result": "(2.1) %"},
      {"measurement": "Accidental overdose, n subjects", "setting": "[1]; 3 mg", "result": 3},
      {"measurement": "Accidental overdose, % subjects", "setting": "[1]; 15 mg", "result": "(4.5) %"},
      {"measurement": "Accidental overdose, n subjects", "setting": "[1]; 15 mg", "result": 6}
    ]}
  ]
}
